One data set addresses T1, DesR (SLG_12870) (Sphingobium sp. SYK-6, UniProt G2IQU0).
T1 construct: homodimer (42 kDa by SEC)
T1 sequence (G2IQU0 1-172): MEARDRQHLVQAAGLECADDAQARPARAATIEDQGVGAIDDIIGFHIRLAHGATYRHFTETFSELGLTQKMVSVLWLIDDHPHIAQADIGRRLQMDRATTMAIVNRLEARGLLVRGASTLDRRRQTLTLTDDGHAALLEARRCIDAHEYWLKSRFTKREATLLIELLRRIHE
Kind of data set: EMSA, inhibition of DNA binding by purified DesR. Particulars: effector (derepression); […] DesR, […] DIG-labelled desB, ligM or desR upstream probes, […] compound, pH […] °C. In general terms: In EMSA bound probe runs differently from free probe, usually more slowly.

Data set [1] deals with T2, DesR (His-DesR) (Sphingobium sp. SYK-6), ORF:abc5f351.
T2 sequence: T1 sequence (G2IQU0 1-172)
Nature of the data set: EMSA. The conditions noted are these: EMSA: 20 mM HEPES pH 7.6, 1 mM EDTA, 10 mM (NH4)2SO4, 1 mM DTT, 0.2% Tween 20, 30 mM KCl, 1 ug poly[d(I-C)], 500 pM probe, 20 C, 20 min.

The target of data set [2] is DesR, MarR-type transcriptional regulator (SLG_12870) of Sphingobium sp. SYK-6, His tag-fused (Sphingobium sp. SYK-6). Nature of the data set: SEC; purified DesR (ca. 400 µg) on Superdex 200 Increase 10/300GL, 10 mM KH2PO4-K2HPO4 buffer (pH 7.4) with 140 mM NaCl, 1.0 ml/min; mass estimated against gel-filtration calibration kits (HMW and LMW).

In general, stoichiometry N refers to a count of units in the complex or per binding partner.

As to `COc1cc(C(=O)O)ccc1O` [VA, vanillate], the “EMSA, inhibition of DNA binding by purified DesR” value on DesR (SLG_12870) is on record as “In the presence of VA, shift bands of these three probes decreased in a concentration-dependent manner”.
For the compound “GCCGTTCCCCTCTCAGGCGCTCGAGATCGACAAAGGTCCGCGCCTTGCGCCGGATCAAGGACAGAGCTTGGCCGTGGACGGCCCGGAGTGACCGGATTTTCCGGCCGGTTTCACGCACTGCCCATTCGAAAAAATTTCGTTTGTGTCACATACAGAAGTTCGGCAGTCTGCCGGCATTGCTCAGCACCGGGCGGACCCGGAAGCCGAACATGCAGGAGAGGTCATATGGCAAAGATCATCGGCGGTTT (double strand) [desBp1]”, the binding entry in data set [1] was “binds”.
In the case of “DesR, MarR-type transcriptional regulator (SLG_12870) of Sphingobium sp. SYK-6, His tag-fused (natural protein)”, in data set [2], the stoichiometry N is 2.
`COc1cc(C(=O)O)cc(OC)c1O` [SA, syringate]: the “EMSA, inhibition of DNA binding by purified DesR” value on DesR (SLG_12870) is on record as “decrease in the shift bands of the three probes was also observed in a concentration-dependent manner”.

The values above are taken from article PMC6888825, “Regulation of vanillate and syringate catabolism by a MarR-type transcriptional regulator DesR in Sphingobium sp. SYK-6” (Scientific Reports, 2019).
